In paper PMC9101373, “Design of DNA Intercalators Based on 4-Carboranyl-1,8-Naphthalimides: Investigation of Their DNA-Binding Ability and Anticancer Activity” (International Journal of Molecular Sciences, 2022):

Legend:
[1] = system: calf thymus DNA (ct-DNA); assay: UV–vis absorption titration with ct-DNA, binding constant Kb; conditions: 10 µM compound, ct-DNA 1.25–15 µM
Description: The interaction of 1,8-naphthalimides bearing carborane clusters with ct-DNA was also studied by UV–vis absorption titration to better understand the mode of interaction and binding strength. For compounds interacting with DNA by intercalation, bathochromic and hypochromic effects are observed in the absorption spectra. The spectral changes observed in the electronic absorption of 6–11, 16–19, 36–43, and 54–61 in the absence and presence of ct-DNA are illustrated in Figures S271–S296 (ESI). Progressive addition of ct-DNA at the concentration of 1.25–15 µM to a fixed amount of modified naphthalic anhydride or naphthalimide (10 µM concentration) decreased absorbance for almost all the tested modified conjugates, except conjugates 14, 15, and 22–27 for which changes in absorbance were not observed. […] Hypochromicity (10–56%) was also observed for all conjugates, with the highest value for compound 40.
To compare the DNA-binding strength of the tested conjugates, we calculated the binding constant Kb, as described in the Materials and Methods section. […] For conjugates 14, 15, and 22–27, the Kb value could not be determined due to the lack of noticeable changes in the UV spectra.
The measurements were performed by adding aliquots of DMSO stock solution of the tested compounds to the buffer solution (pH 7.4, 20 mM, 50 mM NaCl, Tris-HCl buffer, DMSO content of the final solutions = 0.40–0.61%) to the final concentration of 10 µM. The tested compounds were incubated 5 min, with increasing concentrations ranging from 0 to 15 µM of ct-DNA at 37 °C, then the UV–vis absorption spectra, between 310 and 500 nm (310–550 nm for compounds 36–43 and 54–61), were recorded using a GBC Cintra10 UV–vis spectrometer (Dandenong, Australia) equipped with a GBC Thermocell Peltier Power Supply (Dandenong, Australia) using a 1 cm path length cell. The binding constant was calculated according to the following equation [53]: A0/A−A0=εG/εH−G−εG +εG/εH−G−εG ×1/Kb[DNA] where Kb is the binding constant, A0 and A are the absorbance of the free tested compound, and the apparent one, εG and εH−G are their coefficient, respectively, and [DNA] is the concentration of [DNA] in the base pair. The slope to intercept ratio of the plot between A0/A − A0 versus 1/[DNA] yielded the binding constant.

[2] = system: HepG2 cells; assay: Oxidative stress (ROS) measurement by flow cytometry, CellROX Deep Red; type: cell-based, human; conditions: HepG2, 24 h at total IC50
Method: To determine the effect of the compounds on HepG2 cells, we analyzed oxidative status after 24 h of treatment as the pathological level of ROS affects the proper functioning of proteins, lipids, and nucleic acids. The compounds were added to the growth medium at a concentration that corresponds to the total IC50 value. After incubation, the cells were stained with CellROX Deep Red Reagent, which is an oxidative stress indicator. This is a non-fluorescent dye that emits red fluorescent signal upon oxidation by ROS. […] We observed an increase in fluorescence intensity of approximately 22–32% as compared to that of control cells (Figure 5 and Figure S298, ESI).
HepG2 cells (3.85 × 10^5) were seeded onto 6-well plates, cultured with EMEM media at 37 °C and 5% CO2 saturation, and incubated until 60–70% confluence. Subsequently, the cells were treated for 24 h with the tested compounds at a concentration corresponding to their total IC50 values. […] The level of intracellular ROS generation was analyzed by staining with CellROX™ Deep Red Reagent (ex/em: ~644/665 nm) according to the manufacturer’s protocol (Thermo Fisher Scientific, Waltham, MA, USA), in which fluorescence was triggered in the presence of ROS. […] The cells were analyzed after incubation with the dye, with excitation at […] by the FACSCalibur flow cytometer (Becton Dickinson), and data were analyzed by FlowJo software. […]

Substance: N-[2-(Dimethylamino)ethyl]-4-[(2-(2-(1,7-dicarba-closo-dodecaborane-1-yl)-ethylamino)ethyl)amino]-1,8-naphthalimide [Compound 55]
- bathochromic shift [1]: 1–2 nm

Substance: N-[2-(Dimethylamino)ethyl]-4-[(6-(2-(1,7-dicarba-closo-dodecaborane-1-yl)-ethylamino)hexyl)amino]-1,8-naphthalimide [Compound 59]
- bathochromic shift [1]: 1–2 nm

Substance: N-[2-N-Pyrrolidinyl)ethyl]-4-[(6-(2-(1,2-dicarba-closo-dodecaborane-1-yl)-ethylamino)hexyl)amino]-1,8-naphthalimide [Compound 60]
- increase in CellROX fluorescence intensity (ROS) as compared to control [2]: 64%

Substance: N-[2-N-Pyrrolidinyl)ethyl]-4-[(6-(2-(1,7-dicarba-closo-dodecaborane-1-yl)-ethylamino)hexyl)amino]-1,8-naphthalimide [Compound 61]
- increase in CellROX fluorescence intensity (ROS) as compared to control [2]: 65%
